Experimental data as given in article PMC2901175 (ACS medicinal chemistry letters, 2010).
Values after ≈ are worked out from the molar mass of the structure shown.

What was measured:
[1] = tested on: IMP-1; conditions: cited from earlier work
[2] = biological target: VIM-2; conditions: against VIM-2; cited from earlier work
[3] = tested on: VIM-2 expressing bacteria; conditions: cited from earlier work
[4] = tested on: BL21/VIM-2 E. coli; assay: Imipenem MIC potentiation in VIM-2 transformed E. coli; type: cell-based
[5] = tested on: parental (BL21) E. coli; assay: Imipenem MIC in parental E. coli; type: cell-based; conditions: Escherichia coli, read-out: imipenem MIC

C#CCCOCc1nn[nH]c1CNS(=O)(=O)c1ccc(I)cc1 [Compound 1, N-((4-((but-3-ynyloxy)methyl)-1H-1,2,3-triazol-5-yl)methyl)-4-iodo-benzenesulfonamide]
activity towards IMP-1 (in words) [1]: inactive
Ki [2]: 410 ± 30 nM
potentiation of ß-lactam antibacterial effects (in words) [3]: did not potentiate

O=C(O)c1cc[c]([Hg][Cl])cc1 [pCMB, p-chloromercuribenzoic acid]
potentiation of ß-lactam antibacterial effects (in words) [3]: synergistic effect

C[C@@H](O)[C@H]1C(=O)N2C(C(=O)O)=C(SCCN=CN)C[C@H]12 [imipenem]
fold increase of imipenem MIC, BL21/VIM-2 relative to parental BL21 [4]: approximately 9 fold
MIC ([4]; Escherichia coli, read-out: imipenem MIC): 1.85 µg/mL
MIC [5]: 0.21 µg/mL (≈ 0.702 µM)
